The source of these data is ChEMBL document CHEMBL1955831, “Inhibitors of human histone deacetylase with potent activity against the African trypanosome Trypanosoma brucei” (Bioorg Med Chem Lett, 2012).

Assay [1] relates to Trypanosoma brucei. Description: Antitrypanosomal activity against bloodstream Trypanosoma brucei 427 assessed as cell death at 2 ug/ml within 4 hrs by Giemsa staining-based DMRB microscopic analysis.
The target in assay [2] is Histone deacetylase 4 (Homo sapiens) (UniProt P56524). Description: Inhibition of human recombinant HDAC4 expressed using baculovirus expression system using Flour- De-Lys as substrate after 3 hrs by fluorescence analysis.
The target in assay [3] is Histone deacetylase 9 (Homo sapiens) (UniProt Q9UKV0). Description: Inhibition of human recombinant HDAC9 expressed using baculovirus expression system using Flour- De-Lys as substrate after 3 hrs by fluorescence analysis.
Assay [4] concerns the target Histone deacetylase 3 (Homo sapiens) (UniProt O15379). Description: Inhibition of human recombinant HDAC3 expressed using baculovirus expression system using Flour- De-Lys as substrate after 3 hrs by fluorescence analysis.
In assay [5] the target is Histone deacetylase 2 (Homo sapiens) (UniProt Q92769). Description: Inhibition of human recombinant HDAC2 expressed using baculovirus expression system using Flour- De-Lys as substrate after 3 hrs by fluorescence analysis.
Assay [6] concerns the target T1, Histone deacetylase 8 (Homo sapiens) (UniProt Q9BY41).
T1 sequence (whole entry): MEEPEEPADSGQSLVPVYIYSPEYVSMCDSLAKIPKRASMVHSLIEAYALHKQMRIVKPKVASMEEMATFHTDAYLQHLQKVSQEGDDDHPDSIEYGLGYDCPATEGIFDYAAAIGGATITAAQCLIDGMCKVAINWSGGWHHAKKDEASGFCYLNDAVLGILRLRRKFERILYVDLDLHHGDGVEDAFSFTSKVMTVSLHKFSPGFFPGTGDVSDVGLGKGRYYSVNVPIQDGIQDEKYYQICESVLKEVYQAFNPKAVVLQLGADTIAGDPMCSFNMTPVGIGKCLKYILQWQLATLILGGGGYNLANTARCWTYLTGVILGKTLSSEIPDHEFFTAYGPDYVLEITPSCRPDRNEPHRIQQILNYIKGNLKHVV
Description: Inhibition of human recombinant HDAC8 expressed using baculovirus expression system using Flour- De-Lys as substrate after 3 hrs by fluorescence analysis.

Structures are written as SMILES. Active and inactive are the calls of the source. The rule behind the calls is not given here.

Chain of Histone deacetylase 9 (Homo sapiens) (Q9UKV0 whole entry): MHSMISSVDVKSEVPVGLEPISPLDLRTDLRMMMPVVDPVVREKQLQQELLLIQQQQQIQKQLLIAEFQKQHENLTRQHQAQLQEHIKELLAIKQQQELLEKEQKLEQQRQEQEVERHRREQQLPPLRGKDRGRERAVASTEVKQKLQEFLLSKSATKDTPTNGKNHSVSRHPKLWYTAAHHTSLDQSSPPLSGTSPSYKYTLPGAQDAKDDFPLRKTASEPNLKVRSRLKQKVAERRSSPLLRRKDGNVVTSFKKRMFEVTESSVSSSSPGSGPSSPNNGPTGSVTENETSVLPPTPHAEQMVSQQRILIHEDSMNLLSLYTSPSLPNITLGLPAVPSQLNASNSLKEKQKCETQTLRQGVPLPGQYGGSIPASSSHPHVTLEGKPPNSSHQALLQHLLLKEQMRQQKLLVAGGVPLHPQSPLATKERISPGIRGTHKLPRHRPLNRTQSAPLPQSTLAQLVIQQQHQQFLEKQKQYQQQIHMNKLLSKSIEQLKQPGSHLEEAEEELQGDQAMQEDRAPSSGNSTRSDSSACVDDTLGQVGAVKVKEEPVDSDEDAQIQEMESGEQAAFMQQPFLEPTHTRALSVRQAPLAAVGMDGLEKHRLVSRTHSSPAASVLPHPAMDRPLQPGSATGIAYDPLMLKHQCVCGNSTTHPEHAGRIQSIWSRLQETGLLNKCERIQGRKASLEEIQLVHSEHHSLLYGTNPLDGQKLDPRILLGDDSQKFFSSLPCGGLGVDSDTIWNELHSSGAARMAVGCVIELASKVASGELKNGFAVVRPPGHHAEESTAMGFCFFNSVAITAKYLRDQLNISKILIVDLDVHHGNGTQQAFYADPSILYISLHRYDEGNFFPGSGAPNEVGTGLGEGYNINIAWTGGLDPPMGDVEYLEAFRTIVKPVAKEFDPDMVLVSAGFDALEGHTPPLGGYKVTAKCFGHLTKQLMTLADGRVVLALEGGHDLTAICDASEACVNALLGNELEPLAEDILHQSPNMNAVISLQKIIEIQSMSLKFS
Chain of Histone deacetylase 3 (Homo sapiens) (O15379 whole entry): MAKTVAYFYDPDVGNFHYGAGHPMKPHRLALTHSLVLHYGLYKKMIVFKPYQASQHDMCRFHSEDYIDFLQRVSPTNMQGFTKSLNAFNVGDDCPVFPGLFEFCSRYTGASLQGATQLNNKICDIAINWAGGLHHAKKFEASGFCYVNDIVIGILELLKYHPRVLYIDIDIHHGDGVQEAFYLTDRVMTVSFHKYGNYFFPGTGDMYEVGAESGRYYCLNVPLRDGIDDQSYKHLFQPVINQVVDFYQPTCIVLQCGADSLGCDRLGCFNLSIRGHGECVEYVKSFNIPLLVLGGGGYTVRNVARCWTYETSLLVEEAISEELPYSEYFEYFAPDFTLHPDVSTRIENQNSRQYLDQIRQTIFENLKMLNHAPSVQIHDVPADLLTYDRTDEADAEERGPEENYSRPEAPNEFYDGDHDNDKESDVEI
Chain of Histone deacetylase 4 (Homo sapiens) (P56524 whole entry): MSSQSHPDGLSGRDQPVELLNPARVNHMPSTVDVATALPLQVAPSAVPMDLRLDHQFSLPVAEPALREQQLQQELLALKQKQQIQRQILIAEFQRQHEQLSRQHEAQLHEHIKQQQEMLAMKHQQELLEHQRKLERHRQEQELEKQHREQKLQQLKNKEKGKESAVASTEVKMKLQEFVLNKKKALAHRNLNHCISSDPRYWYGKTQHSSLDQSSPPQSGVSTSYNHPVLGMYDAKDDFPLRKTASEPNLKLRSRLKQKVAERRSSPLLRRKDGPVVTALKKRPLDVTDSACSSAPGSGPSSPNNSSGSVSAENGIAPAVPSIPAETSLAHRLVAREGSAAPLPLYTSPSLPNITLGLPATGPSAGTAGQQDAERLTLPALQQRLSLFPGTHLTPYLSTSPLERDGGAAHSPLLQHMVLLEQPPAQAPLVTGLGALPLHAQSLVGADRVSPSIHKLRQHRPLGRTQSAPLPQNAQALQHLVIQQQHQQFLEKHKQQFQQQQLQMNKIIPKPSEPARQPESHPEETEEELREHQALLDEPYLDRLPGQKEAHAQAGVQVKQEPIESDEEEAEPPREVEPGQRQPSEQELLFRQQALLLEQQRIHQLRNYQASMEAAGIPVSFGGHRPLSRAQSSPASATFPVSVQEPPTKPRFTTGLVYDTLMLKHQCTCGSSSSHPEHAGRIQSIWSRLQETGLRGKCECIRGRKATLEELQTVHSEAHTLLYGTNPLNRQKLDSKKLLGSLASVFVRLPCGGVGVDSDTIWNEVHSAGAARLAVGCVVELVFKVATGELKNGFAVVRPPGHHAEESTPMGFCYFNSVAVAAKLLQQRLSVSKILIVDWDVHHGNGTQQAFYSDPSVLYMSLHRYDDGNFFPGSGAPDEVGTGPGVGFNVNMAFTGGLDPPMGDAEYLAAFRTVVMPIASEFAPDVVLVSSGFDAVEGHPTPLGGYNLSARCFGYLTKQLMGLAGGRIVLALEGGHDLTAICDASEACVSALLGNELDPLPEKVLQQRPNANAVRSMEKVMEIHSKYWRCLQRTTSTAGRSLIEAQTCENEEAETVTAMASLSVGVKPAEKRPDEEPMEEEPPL
Chain of Histone deacetylase 2 (Homo sapiens) (Q92769 whole entry): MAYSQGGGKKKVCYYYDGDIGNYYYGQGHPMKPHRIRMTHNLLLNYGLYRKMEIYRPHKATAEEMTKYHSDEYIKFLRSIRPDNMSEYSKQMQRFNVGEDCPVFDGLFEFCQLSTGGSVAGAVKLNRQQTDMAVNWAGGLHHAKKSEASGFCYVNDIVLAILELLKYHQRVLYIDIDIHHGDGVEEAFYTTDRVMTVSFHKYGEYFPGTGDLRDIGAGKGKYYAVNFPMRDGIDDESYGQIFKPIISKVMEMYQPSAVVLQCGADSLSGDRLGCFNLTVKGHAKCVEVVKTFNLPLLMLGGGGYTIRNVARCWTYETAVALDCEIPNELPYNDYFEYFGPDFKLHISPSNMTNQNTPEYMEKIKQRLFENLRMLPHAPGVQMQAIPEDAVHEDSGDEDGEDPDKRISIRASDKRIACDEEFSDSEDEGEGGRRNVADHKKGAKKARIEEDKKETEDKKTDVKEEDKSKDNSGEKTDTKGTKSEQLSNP

As to `O=C(/C=C/c1cccc(S(=O)(=O)N2CCN(c3ncccn3)CC2)c1)NO`, the result in assay [1] was Active.
`O=C(/C=C/c1cccc(S(=O)(=O)Nc2cccc(F)c2)c1)NO`: the ED50 in assay [2] amounted to 65 nM.
With `COc1ccccc1N1CCN(S(=O)(=O)c2cccc(/C=C/C(=O)NO)c2)CC1`, the ED50 in assay [3] was 145 nM.
Regarding `COc1ccc(N2CCN(S(=O)(=O)c3cccc(/C=C/C(=O)NO)c3)CC2)cc1`, the ED50 in assay [3] worked out at 1180 nM.
Consider `O=C(/C=C/c1nc2ccccc2o1)NO`, for which the ED50 in assay [4] came to 97 nM.
With `COc1ccc(NS(=O)(=O)c2cccc(/C=C/C(=O)NO)c2)cc1`, the ED50 in assay [5] worked out at 105 nM.
For the compound `O=C(/C=C/c1cccc(S(=O)(=O)N2CCN(c3ccccn3)CC2)c1)NO`, the ED50 in assay [6] was 581 nM.
